Test results published in ChEMBL document CHEMBL1146565, “Intercedensides A-C, three new cytotoxic triterpene glycosides from the sea cucumber Mensamaria intercedens Lampert” (2003).

Test system: Pyricularia oryzae
Test: Antimicrobial activity against Pyricularia oryzae P-2b assessed as drug concentration causing minimum morphological deformation
Type: functional

In the case of `O=c1[nH]cc(F)c(=O)[nH]1` [FLUOROURACIL], the Activity is reported as “<=5 ug ml-1”.
